Experimental data taken from ChEMBL document CHEMBL1909559, “Design, synthesis, and biological evaluation of benzodiazepine-based SUMO-specific protease 1 inhibitors” (Bioorg Med Chem Lett, 2011).

Experiments:
[1] = tested on: PC-3; experiment: Cytotoxicity against human PC3 cells
[2] = target: T1, Sentrin-specific protease 1 (Homo sapiens, UniProt Q9P0U3); experiment: Inhibition of histidine-tagged human SENP1 catalytic domain preincubated for 10 mins by SUMO-CHOP-PLA2 reporter fluorescence assay
T1 sequence (Q9P0U3 whole entry): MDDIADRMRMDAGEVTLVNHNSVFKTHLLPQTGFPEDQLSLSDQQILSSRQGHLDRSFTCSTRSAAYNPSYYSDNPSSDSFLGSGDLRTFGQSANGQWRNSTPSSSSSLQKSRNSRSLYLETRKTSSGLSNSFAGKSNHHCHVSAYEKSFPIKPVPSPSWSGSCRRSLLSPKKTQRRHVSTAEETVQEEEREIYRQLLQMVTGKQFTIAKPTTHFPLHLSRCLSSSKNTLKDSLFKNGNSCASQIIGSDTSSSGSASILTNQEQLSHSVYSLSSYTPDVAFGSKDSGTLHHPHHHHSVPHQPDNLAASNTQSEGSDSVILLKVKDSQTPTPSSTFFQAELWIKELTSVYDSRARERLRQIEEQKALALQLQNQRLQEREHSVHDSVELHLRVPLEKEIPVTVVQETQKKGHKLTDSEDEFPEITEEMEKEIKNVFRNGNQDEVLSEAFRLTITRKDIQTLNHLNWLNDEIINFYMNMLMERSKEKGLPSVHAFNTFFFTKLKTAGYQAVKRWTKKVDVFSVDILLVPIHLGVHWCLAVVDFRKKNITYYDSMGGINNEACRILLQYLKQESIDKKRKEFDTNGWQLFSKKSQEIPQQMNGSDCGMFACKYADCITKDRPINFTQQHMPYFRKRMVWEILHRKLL

| SMILES | IC50 [1] [µM] | IC50 [2] [µM] |
| --- | --- | --- |
| O=CCN1C(=O)C(NC(=O)c2ccc(NC(=O)OCc3ccccc3)cc2)N=C(c2ccccc2)c2ccccc21 (stereo not drawn) | 13 |  |
| CC(C)(C)OC(=O)Nc1ccc(C(=O)NC2N=C(c3ccccc3)c3ccccc3N(CC=O)C2=O)cc1 (stereo not drawn) |  | > 100 |
| O=CCN1C(=O)C(NC(=O)c2cccc(NC(=O)OCc3ccccc3)c2)N=C(c2ccccc2)c2ccccc21 (stereo not drawn) | 35.7 |  |
| CC(C)(C)OC(=O)Nc1cccc(C(=O)NC2N=C(c3ccccc3)c3ccccc3N(CC=O)C2=O)c1 (stereo not drawn) |  | > 100 |
| CC(=O)Nc1cccc(C(=O)NC2N=C(c3ccccc3)c3ccccc3N(CC=O)C2=O)c1 (stereo not drawn) |  | > 100 |
| O=C(NC1N=C(c2ccccc2)c2ccccc2N(CCO)C1=O)OCc1ccccc1 (stereo not drawn) |  | > 100 |
| O=CCCN1C(=O)C(NC(=O)OCc2ccccc2)N=C(c2ccccc2)c2ccccc21 (stereo not drawn) |  | > 100 |
| O=CCN1C(=O)C(NC(=O)OCc2ccccc2)N=Cc2ccccc21 (stereo not drawn) |  | > 100 |
